Values quoted from earlier work as cited in patent US8883830B2, “Topical therapy for the treatment of migraines, muscle sprains, muscle spasms, spasticity and related conditions” (Afgin Pharma LLC., priority 2003, dated 2014).

Tests used:
[1] = relative to ergotamine

oral bioavailability [%]	SMILES	emetic activity compared with ergotamine [1]
~70	CNS(=O)(=O)CCc1ccc2[nH]cc(C3CCN(C)CC3)c2c1 [naratriptan]	
	CN1C[C@H](C(=O)N[C@]2(C)O[C@@]3(O)[C@@H]4CCCN4C(=O)[C@H](Cc4ccccc4)N3C2=O)C[C@@H]2c3cccc4[nH]cc(c34)C[C@H]21 [Dihydroergotamine]	about 12 times less active
